Experimental data from US11420947B2, “(S)-n-hydroxy-2-(2-(4-methoxyphenyl)butanamido)thiazole-5-carboxamide and pharmaceutically acceptable salts thereof” (TRANSLATIONAL DRUG DEVELOPMENT, LLC, priority 2018, dated 2022).

What was measured:
Test in all cases: CellTiter-Glo cell viability assay
Type in all cases: cell-based
A498 = details: for IC50: Homo sapiens, A498, RENAL, RCC-VHL mut, 72 hours
Experimental: (§1) Cell viability in the presence of varying concentrations of the above listed compounds at different time points was used to assess cytotoxicity and the effect of the compounds on cell proliferation.
(§2) Cell viability was measured by the CellTiter-Glo® cell viability assay from Promega (Madison, Wis.). The CellTiter-Glo® Luminescent Cell Viability Assay is a homogeneous method to determine the number of viable cells in culture based on quantitation of the ATP present, which signals the presence of metabolically active cells. Following treatment, CellTiter-Glo® is added to treatment wells and incubated at 37° C. luminescence values were measured at using a Molecular Devices Spectramax microplate reader
(§3) Cells were grown to 70% confluency, trypsinized, counted, and seeded in 96 well flat-bottom plates at a final concentration of 2.5×10^3-5×10^3 cells/well (Day 0). Cells were allowed to incubate in growth media for 24 hours. Treatment with the test agents or standard agents began on Day 1 and continued for 72 hours. At the 72-hour timepoint, treatment containing media was removed. Viable cell numbers are quantified by the CellTiter-Glo® cell viability assay as described above. Results from these studies were used to calculate an IC50 value (concentration of drug that inhibits cell growth by 50 percent of control) for each compound.
(§4) For single agent and combination studies, data from each experiment was collected and expressed as % Cell Growth using the following calculation: % Cell Growth=(ftest/fvehicle)×100
(§5) Where test is the fluorescence of the tested sample, and fvehicle is the fluorescence of the vehicle in which the drug is dissolved. Dose response graphs and IC50 values were generated using Prism 6 software (GraphPad) using the following equation: Y=(Top-Bottom)/(1+10^((logIC^50^-X)-HillSlope))

FaDu = details: for IC50: Homo sapiens, FaDu, H&N SQUAMOUS CELL, Pharynx, 72 hours
Experimental: as §1, §2, §3, §4, §5

G401 = details: for IC50: Homo sapiens, G-401, G401, RENAL, Rhabdoid Tumor, 72 hours
Experimental: as §1, §2, §3, §4, §5

G402 = details: for IC50: Homo sapiens, G-402, G402, RENAL, Renal leiomyoblastoma, 72 hours
Experimental: as §1, §2, §3, §4, §5

H460 = details: for IC50: Homo sapiens, NCI-H460, H460, LUNG, NSCLC, 72 hours
Experimental: as §1, §2, §3, §4, §5

H522 = details: for IC50: Homo sapiens, NCI-H522, H522, LUNG, NSCLC, 72 hours
Experimental: as §1, §2, §3, §4, §5

HCC1806 = details: for IC50: Homo sapiens, HCC1806, BREAST, acantholytic squamous cell carcinoma, 72 hours
Experimental: as §1, §2, §3, §4, §5

HCC70 = details: for IC50: Homo sapiens, HCC70, BREAST, TNBC, 72 hours
Experimental: as §1, §2, §3, §4, §5

Hs852T = details: for IC50: Hs852T, MELANOMA, 72 hours
Experimental: as §1, §2, §3, §4, §5

Ishikawa = details: for IC50: Homo sapiens, Ishikawa, ENDOMETRIAL, 72 hours
Experimental: as §1, §2, §3, §4, §5

KMS-34 = details: for IC50: KMS-34, HEMATOPIETIC, MM, 72 hours
Experimental: as §1, §2, §3, §4, §5

MOLM-13 = details: for IC50: Homo sapiens, MOLM-13, HEMATOPIETIC, AML, 72 hours
Experimental: as §1, §2, §3, §4, §5

MOLP-8 = details: for IC50: Homo sapiens, MOLP-8, HEMATOPIETIC, MM, 72 hours
Experimental: as §1, §2, §3, §4, §5

MeWo = details: for IC50: Homo sapiens, MeWo, MELANOMA, LN Met, 72 hours
Experimental: as §1, §2, §3, §4, §5

MiaPaCa = details: for IC50: Homo sapiens, MIA PaCa-2, MiaPaCa, PANCREAS, Pancreatic, 72 hours
Experimental: as §1, §2, §3, §4, §5

N87 = details: for IC50: N87, GASTRIC, Carcinoma, 72 hours
Experimental: as §1, §2, §3, §4, §5

NCI-H1963 = details: for IC50: Homo sapiens, NCI-H1963, LUNG, Carcinoma, 72 hours
Experimental: as §1, §2, §3, §4, §5

NCI-H209 = details: for IC50: Homo sapiens, NCI-H209, LUNG, Carcinoma, 72 hours
Experimental: as §1, §2, §3, §4, §5

NCI-H820 = details: for IC50: NCI-H820, LUNG, NSCLC, 72 hours
Experimental: as §1, §2, §3, §4, §5

OCI-Ly3 = details: for IC50: Homo sapiens, OCI-Ly3, HEMATOPIETIC, DLBCL, 72 hours
Experimental: as §1, §2, §3, §4, §5

SK-Hep-1 = details: for IC50: Homo sapiens, SK-HEP1, SK-Hep-1, LIVER, HCC, 72 hours
Experimental: as §1, §2, §3, §4, §5

SN12CCP = details: for IC50: SN12CCP, RENAL, RCC, 72 hours
Experimental: as §1, §2, §3, §4, §5

SNU-1 = details: for IC50: Homo sapiens, SNU1, SNU-1, GASTRIC, Carcinoma, 72 hours
Experimental: as §1, §2, §3, §4, §5

SiHa = details: for IC50: Homo sapiens, SiHa, CERVICAL-SQUAMOUS CELL, 72 hours
Experimental: as §1, §2, §3, §4, §5

THP-1 = details: for IC50: Homo sapiens, THP-1, HEMATOPIETIC, AML, 72 hours
Experimental: as §1, §2, §3, §4, §5

## CCC(C(=O)Nc1ncc(C(=O)NO)s1)c1ccc(OC)cc1 (racemic) [#1, N-hydroxy-2-(2-(4-methoxyphenyl)butanamido)thiazole-5-carboxamide]
A498
  IC50: 63 nM
FaDu
  IC50: 10 nM
G401
  IC50: 91 nM
G402
  IC50: 102 nM
H460
  IC50: 79 nM
H522
  IC50: 178 nM
HCC1806
  IC50: 179 nM
HCC70
  IC50: 100 nM
Hs852T
  IC50: 490 nM
Ishikawa
  IC50: 48 nM
KMS-34
  IC50: 15 nM
MOLM-13
  IC50: 62 nM
MOLP-8
  IC50: 13 nM
MeWo
  IC50: 158 nM
MiaPaCa
  IC50: 51 nM
N87
  IC50: 120 nM
NCI-H1963
  IC50: 196 nM
NCI-H209
  IC50: 110 nM
NCI-H820
  IC50: 85 nM
OCI-Ly3
  IC50: 65 nM
SK-Hep-1
  IC50: 374 nM
SN12CCP
  IC50: 126 nM
SNU-1
  IC50: 509 nM
SiHa
  IC50: 311 nM
THP-1
  IC50: 65 nM

## CC[C@H](C(=O)Nc1ncc(C(=O)NO)s1)c1ccc(OC)cc1 [#1a, (S)—N-hydroxy-2-(2-(4-methoxyphenyl)butanamido)thiazole-5-carboxamide]
A498
  IC50: 47 nM
A498; ratio of IC50, A498
  #1/#1a: 1.34
  #1b/#1a: 7.49
FaDu
  IC50: 40 nM
FaDu; ratio of IC50, FaDu
  #1/#1a: 0.25
  #1b/#1a: 8.28
G401
  IC50: 50 nM
G401; ratio of IC50, G401
  #1/#1a: 1.82
  #1b/#1a: 8.14
G402
  IC50: 65 nM
G402; ratio of IC50, G402
  #1/#1a: 1.57
  #1b/#1a: 7.71
H460
  IC50: 50 nM
H460; ratio of IC50, H460
  #1/#1a: 1.58
  #1b/#1a: 7.26
H522
  IC50: 115 nM
H522; ratio of IC50, H522
  #1/#1a: 1.55
  #1b/#1a: 8.5
HCC1806
  IC50: 71 nM
HCC1806; ratio of IC50, HCC1806
  #1/#1a: 2.52
  #1b/#1a: 6.55
HCC70
  IC50: 52 nM
HCC70; ratio of IC50, HCC70
  #1/#1a: 1.92
  #1b/#1a: 6.56
Hs852T
  IC50: 54 nM
Hs852T; ratio of IC50, Hs852T
  #1/#1a: 9.07
  #1b/#1a: 22.96
Ishikawa
  IC50: 28 nM
Ishikawa; ratio of IC50, Ishikawa
  #1/#1a: 1.71
  #1b/#1a: 6.82
KMS-34
  IC50: 13 nM
KMS-34; ratio of IC50, KMS-34
  #1/#1a: 1.15
  #1b/#1a: 5.15
MOLM-13
  IC50: 28 nM
MOLM-13; ratio of IC50, MOLM-13
  #1/#1a: 2.21
  #1b/#1a: 7.46
MOLP-8
  IC50: 13 nM
MOLP-8; ratio of IC50, MOLP-8
  #1/#1a: 1
  #1b/#1a: 2.46
MeWo
  IC50: 83 nM
MeWo; ratio of IC50, MeWo
  #1/#1a: 1.9
  #1b/#1a: 7.37
MiaPaCa
  IC50: 35 nM
MiaPaCa; ratio of IC50, MiaPaCa
  #1/#1a: 1.46
  #1b/#1a: 8.26
N87
  IC50: 18 nM
N87; ratio of IC50, N87
  #1/#1a: 6.67
  #1b/#1a: 18.39
NCI-H1963
  IC50: 26 nM
NCI-H1963; ratio of IC50, NCI-H1963
  #1/#1a: 7.54
  #1b/#1a: 15.65
NCI-H209
  IC50: 16 nM
NCI-H209; ratio of IC50, NCI-H209
  #1/#1a: 6.88
  #1b/#1a: 15.69
NCI-H820
  IC50: 54 nM
NCI-H820; ratio of IC50, NCI-H820
  #1/#1a: 1.57
  #1b/#1a: 7.37
OCI-Ly3
  IC50: 35 nM
OCI-Ly3; ratio of IC50, OCI-Ly3
  #1/#1a: 1.86
  #1b/#1a: 4.86
SK-Hep-1
  IC50: 149 nM
SK-Hep-1; ratio of IC50, SK-Hep-1
  #1/#1a: 2.51
  #1b/#1a: 6.71
SN12CCP
  IC50: 55 nM
SN12CCP; ratio of IC50, SN12CCP
  #1/#1a: 2.29
  #1b/#1a: 7.45
SNU-1; ratio of IC50, SNU-1
  #1/#1a: 3.86
  #1b/#1a: 10.63
SiHa
  IC50: 307 nM
SiHa; ratio of IC50, SiHa
  #1/#1a: 1.01
  #1b/#1a: 8.91
THP-1
  IC50: 32 nM
THP-1; ratio of IC50, THP-1
  #1/#1a: 2.03
  #1b/#1a: 6.13

## CC[C@@H](C(=O)Nc1ncc(C(=O)NO)s1)c1ccc(OC)cc1 [#1b, (R)—N-hydroxy-2-(2-(4-methoxyphenyl)butanamido)thiazole-5-carboxamide]
A498
  IC50: 352 nM
FaDu
  IC50: 331 nM
G401
  IC50: 407 nM
G402
  IC50: 501 nM
H460
  IC50: 363 nM
H522
  IC50: 977 nM
HCC1806
  IC50: 465 nM
HCC70
  IC50: 341 nM
Hs852T
  IC50: 1240 nM
Ishikawa
  IC50: 191 nM
KMS-34
  IC50: 67 nM
MOLM-13
  IC50: 209 nM
MOLP-8
  IC50: 32 nM
MeWo
  IC50: 612 nM
MiaPaCa
  IC50: 289 nM
N87
  IC50: 331 nM
NCI-H1963
  IC50: 407 nM
NCI-H209
  IC50: 251 nM
NCI-H820
  IC50: 398 nM
OCI-Ly3
  IC50: 170 nM
SK-Hep-1
  IC50: 1000 nM
SN12CCP
  IC50: 410 nM
SNU-1
  IC50: 1400 nM
SiHa
  IC50: 2740 nM
THP-1
  IC50: 196 nM
